Test results reported in US20110189709A1, “METHOD FOR DETECTING HEPATIC INJURY DUE TO ANTITHYROID DRUG” (YAMASA CORPORATION, priority 2010, published 2011).

Tests used:
[1] = test system: primary cultured hepatocytes; conditions: 10 mM PTU, 1 hour and 3 hours after adding
Protocol: Rat hepatocytes, which were isolated by collagenase prefusion, are placed into a 24-well plate coated with collagen to have 10^5 cells/well and cultured for 4 hours. After removing the cells not fixed to the well, 10 mM of PTU was added to the cells and each of the 3 cultured media prior to adding the PTU, of 1 hour after adding the PTU, and of 3 hours after adding PTU, was sampled. After 3 hours of culturing, 0.5% of Triton-X100 was added to destroy the cells and a suspended solution was obtained. OCT, ALT and AST levels in each of the sampled cultured medium and the suspended solution after cell destruction were measured. […] Based upon an activity of the suspended solution as 100%, leakage rates of OCT, AST and ALT were calculated in each cultured medium obtained by sampling.

[2] = Rat thyrotoxicosis model (T3 administration); assay type: in vivo
Protocol: Each of blood OCT, AST and ALT levels was measured before and after the administration.

[3] = liver homogenate after 10 days T3, vs control group

Row | SMILES | levels of AST, ALT and OCT in cultured medium ([1]; FIG. 1) | OCT leakage rates compared to the ALT leakage rates ([1]; suspended solution after cell destruction = 100%) | ALT content in the liver [2, 3] | AST content in the liver [2, 3] | blood OCT level ([2]; male Wistar rats, T3 0.1 mg/kg/day s.c. for 10 days, ELISA, control group 14.0±1.6) | blood ALT level ([2]; male Wistar rats, T3 0.1 mg/kg/day s.c. for 10 days, control group 8.2±0.8) | blood AST level ([2]; male Wistar rats, T3 0.1 mg/kg/day s.c. for 10 days, control group 29.0±5.1) | body weight ([2]; male Wistar rats, T3 0.1 mg/kg/day s.c. for 10 days, control group 303±15.9 g)
1 | CCCc1cc(=O)[nH]c(=S)[nH]1 [PTU, propylthiouracil] | elevated | higher | – | – | – | – | – | –
2 | N[C@@H](Cc1cc(I)c(Oc2ccc(O)c(I)c2)c(I)c1)C(=O)O [T3] | – | – | elevated significantly | elevated significantly | 11.9 ± 2.5 ng/mL | 11.2±0.6 IU/L | 40.0±6.51 IU/L | 266 ± 5.8 g
